According to patent publication US8354447B2, “mGLU receptors antagonists for treating disorders associated with mGLU receptors including addiction and depression” (The Scripps Research Institute, priority 2002, dated 2013):
Structures can show the parent of a compound that is named as a salt. Where two headings read alike, the source gives them in different places.

Key:
[1] = tested on: drug-naïve rats; conditions: previous studies (Harrison et al., 2002; Macey et al., 2001); cited from earlier work
[2] = tested on: male Wistar rats
Text: (§1) Animals were trained to respond according to a modification of the discrete-trial current-threshold procedure of Kornetsky and Esposito (Fed Proc 38:2473-2476, 1979), which has been described in detail previously (Markou and Koob, 1992 Physiol Behav 51:111-119). Briefly, a trial was initiated by the delivery of a non-contingent electrical stimulus. […] The current intensity delivered was adjusted for each animal and typically ranged from 50 to 200 μA. […] After a variable inter-trial interval (7.5-12.5 sec, average of 10 sec), another trial was initiated with the delivery of a non-contingent electrical stimulus. […] Responding during the inter-trial interval delayed the onset of the next trial by 12.5 sec. Current levels were varied in alternating descending and ascending series. A set of three trials was presented for each current intensity. Current intensities were altered in 5 μA steps. In each testing session, four alternating descending-ascending series were presented. […] The overall threshold of the session was defined as the mean of the thresholds for the four individual series. Each testing session was ˜30 min in duration. The latency between the onset of the non-contingent stimulus and a positive response was recorded as the response latency. The response latency for each test session was defined as the mean response latency of all trials during which a positive response occurred. After establishment of stable ICSS reward thresholds, rats were tested in the ICSS procedure once daily except for the spontaneous nicotine withdrawal experiment when rats were tested at time-points according to the experimental design.
Systemic administration experiments. These experiments investigated whether nicotine withdrawal, as measured by elevations in ICSS thresholds, could be precipitated in nicotine-treated rats by systemic administration of an agonist at mGluII receptors (LY314582), an agonist at GABAB receptors (CGP44532), or antagonists at mGlu5 (MPEP), NMDA (MK-801) or AMPA/Kainate (NBQX) glutamate receptors. For each drug tested, rats were trained in the ICSS paradigm until stable baseline responding was achieved, defined as ≦10% variation in thresholds for 3 consecutive days and requiring approximately 14 days of daily testing. […] One group was then prepared with subcutaneous osmotic mini-pumps delivering vehicle and the second group with mini-pumps delivering 9 mg/kg/day nicotine hydrogen tartrate (3.16 mg/kg/day nicotine free base). There was a minimum seven-day interval after mini-pump implantation, during which ICSS reward thresholds continued to be measured daily, before the effect of any systemically administered drug on reward thresholds was evaluated.

[3] = tested on: male Wistar rats; assay: ICSS thresholds during spontaneous nicotine withdrawal; assay type: in vivo, rat; conditions: for ICSS reward thresholds: 1 mg/kg, 30 min before the 18 h time-point
Text: as §1
Osmotic mini-pumps were surgically removed from nicotine-treated rats (n=15) (defined as rats having been prepared with mini-pumps delivering 3.16 mg/kg/day nicotine free-base for at least seven days) or corresponding control rats (n=17; rats prepared with vehicle-containing mini-pumps). All rats were then tested in the ICSS procedure at 12, 18, 24, 36, 48 and 72 hr after the removal of osmotic mini-pumps. These time points were chosen based on the time course of threshold elevations previously observed during spontaneous nicotine withdrawal after removal of nicotine-delivering osmotic mini-pumps (Harrison et al., 2001, Neuropsychopharmacology 25:55-71; K.L.). […] Thirty min before being tested at the 18 h time-point, one group of nicotine withdrawing and one group of control rats were injected with LY341495 (1 mg/kg); the remaining rats were injected with vehicle.

[4] = tested on: Wistar rats; assay: Nicotine self-administration under a fixed ratio schedule (LY341495, LY341495 and MPEP)
[5] = tested on: male Wistar rats; assay: Reward deficits during amphetamine withdrawal (ICSS thresholds, response latencies, body weight)
Procedure: Male Wistar rats (Charles River, Hollister, Calif.) (300-320 g at the start of the experiments) were housed in pairs in a temperature and humidity controlled environment with a 12 hr light/dark cycle. Food and water were available ad libitum. A different set of subjects was used for each experiment. All subjects were treated in accordance with the National Institutes of Health “Guide for the Care and Use of Laboratory Animals,” and the animal facilities and the experimental protocols were in accordance with the Association for the Assessment and Accreditation of Laboratory Animal Care. Most of the behavioral testing was conducted during the light phase of the subjects' light/dark cycle, unless otherwise dictated by the experimental design due to time-course assessment of behavioral parameters. Apparatus The experimental apparatus consisted of 16 Plexiglas chambers (30.5×30×17 cm) (Med Associates Inc., St. Albans, Vt.) encased in sound-attenuating boxes (San Diego Instruments, San Diego, Calif.). Each operant chamber consisted of a stainless steel grid floor and a metal wheel manipulandum located on one wall, which required a 0.2 N force to rotate it a quarter turn. Gold-contact swivel commutators and bipolar leads connected the animals in the stimulation circuit (Plastics One, Roanoke, Va.). Brain stimulation was administered by constant current stimulators (Stimtek 1200, San Diego Instruments, San Diego, Calif.). Surgical Procedure The rats were prepared with 11 mm stainless steel bipolar electrodes (Plastics One; diameter=0.25 mm) in the posterior lateral hypothalamus (AP −0.5 mm from bregma; L±1.7 mm; DV −8.3 mm from dura, with the incisor bar set at 5 mm above the interaural line; Pellegrino et al. 1979 under halothane anaesthesia (1-1.5% halothane/oxygen mixture). Subjects were allowed to recover for at least seven days before any behavioral testing. Half of the electrodes were positioned on the right hemisphere and the other half on the left hemisphere to counterbalance possible brain asymmetries. […] The subjects were initially trained to turn the wheel manipulandum on a fixed ratio 1 schedule of reinforcement. […] The current intensity delivered was adjusted for each animal and typically ranged from 100 to 200 μA. After successful familiarization with this procedure (2 sessions of 100 reinforcers in less than 20 minutes), the rats were gradually trained on a discrete-trial, current-threshold procedure. At the start of each trial rats received a non-contingent electrical stimulus. During the following 7.5 sec, the limited hold, if the subjects responded by turning the wheel manipulandum a quarter turn (positive response) they received a second, contingent stimulus identical to the previous non-contingent stimulus. During a 2 sec period immediately following a positive response, further responses were recorded as extra responses but had no consequence. If no response occurred during the 7.5 sec limited hold period a negative response was recorded. […] Stimulation intensities were varied according to the classical psychophysical method of limits. The subjects received four alternating series of ascending and descending current intensities starting with a descending series. Within each series the stimulus intensity was altered by 5 μA steps between each set of trials (three trials per set). After training in the above procedure, rats were tested until stable baseline thresholds had been achieved L+10% over a 5-day period). […] During the ascending series, the reverse situation defined the threshold. Thus, during each session, four current-thresholds were recorded and the mean of these values was taken as the current-threshold for each subject for each test session. Response Latency: The latency between the onset of the non-contingent stimulus and a positive response was recorded as the response latency. The response latency for each test session was defined as the mean response latency of all trials during which a positive response occurred. […]

[6] = tested on: Wistar rats; assay: Cocaine-induced lowering of ICSS thresholds; assay type: in vivo, rat
[7] = CGP44532 0.065 mg/kg i.p., Nicotine-treated rats
[8] = CGP44532 0.065 mg/kg i.p., Vehicle-treated rats
[9] = CGP44532 0.125 mg/kg i.p., Nicotine-treated rats
[10] = CGP44532 0.125 mg/kg i.p., Vehicle-treated rats
[11] = CGP44532 0.25 mg/kg i.p., Nicotine-treated rats
[12] = CGP44532 0.25 mg/kg i.p., Vehicle-treated rats
[13] = CGP44532 0.5 mg/kg i.p., Nicotine-treated rats
[14] = CGP44532 0.5 mg/kg i.p., Vehicle-treated rats
[15] = chronic amphetamine administration

## CP(=O)(O)C[C@@H](O)CN [CGP44532, 3-Amino-2-(S)-hydroxypropyl-methyl-phosphinic acid]
[1]
  dose that elevated ICSS thresholds in drug-naïve rats: ≥ 0.25 mg/kg
[2]; [7]
  ICSS Thresholds: 96.37 ± 3.2 percentage of baseline
  ICSS response Latencies: 106.02 ± 8.1 percentage of baseline
[2]; [8]
  ICSS Thresholds: 96.28 ± 3.1 percentage of baseline
  ICSS response Latencies: 97.31 ± 3.8 percentage of baseline
[2]; [9]
  ICSS Thresholds: 103.88 ± 7.2 percentage of baseline
  ICSS response Latencies: 98.15 ± 5.3 percentage of baseline
[2]; [10]
  ICSS Thresholds: 106.76 ± 3.2 percentage of baseline
  ICSS response Latencies: 102.34 ± 2.8 percentage of baseline
[2]; [11]
  ICSS Thresholds: 109.98 ± 5.4 percentage of baseline
  ICSS response Latencies: 99.05 ± 3.1 percentage of baseline
[2]; [12]
  ICSS Thresholds: 109.14 ± 5.1 percentage of baseline
  ICSS response Latencies: 105.03 ± 3.1 percentage of baseline
[2]; [13]
  ICSS Thresholds: 146.83 ± 14.3 percentage of baseline
  ICSS response Latencies: 98.11 ± 5.4 percentage of baseline
[2]; [14]
  ICSS Thresholds: 148.43 ± 16.6 percentage of baseline
  ICSS response Latencies: 106.13 ± 6.5 percentage of baseline
[2]; CGP44532 0.5 mg/kg, p<0.001
  ICSS reward thresholds: elevated reward thresholds in nicotine-treated and control rats
[2]; CGP44532 0.065-0.25 mg/kg, nicotine treated rats
  ICSS reward thresholds: did not precipitate reward threshold elevations in nicotine treated rats at the lowest doses tested
[2]; CGP44532 0.065-0.5 mg/kg
  ICSS response Latencies: had no effect on response latencies at any dose tested

## N[C@](CC1c2ccccc2Oc2ccccc21)(C(=O)O)[C@H]1C[C@@H]1C(=O)O [LY341495, 2S-2-amino-2-(1S,2S-2-carboxycyclopropan-1-yl)-3-(xanth-9-yl)propionic acid]
[3]; control rats
  ICSS reward thresholds: without affecting thresholds in control rats
[3]; nicotine-withdrawing rats, p<0.001
  ICSS reward thresholds: significantly attenuated the elevations in reward thresholds in nicotine-withdrawing rats
[3]; LY341495 1 mg/kg
  ICSS response Latencies: had no effect on response latencies at any time-point after injection
[4]; 0.1, 0.5, 3 and 5 mg/kg LY341495
  nicotine responding: significantly decreased nicotine responding
[4]; LY341495 0.5 mg/kg
  decrease of nicotine self-administration: approximately 35%
[4]; LY341495 0.5 mg/kg alone, p<0.05
  nicotine self-administration: significantly decreased nicotine self-administration

## C[C@H](N)Cc1ccccc1 [amphetamine, d-Amphetamine sulfate]
[5]; amphetamine-exposed rats treated with vehicle
  reward thresholds during amphetamine withdrawal: exhibited elevated thresholds at withdrawal hours 12, 36, 42, 60 and 84
[5]; [15]
  body weight: significantly reduced the body weight of animals
  response latencies: did not significantly differ from those of the saline-exposed rats at any stage during chronic drug treatment
[5]; chronic amphetamine administration, four day treatment, 1-5 mg/kg three times a day
  reward thresholds: significantly elevated thresholds

## COC(=O)[C@H]1[C@@H](OC(=O)c2ccccc2)C[C@@H]2CC[C@H]1N2C.Cl [cocaine, Cocaine hydrochloride]
[6]; cocaine 10 mg/kg
  ICSS response Latencies: significantly decreased ICSS response latencies
[6]; cocaine 10 mg/kg i.p.
  ICSS Thresholds: significantly lowered ICSS thresholds
[6]; cocaine 10 mg/kg, at 10 and 40 min after cocaine injection
  ICSS thresholds, time course: significantly lowered in cocaine-treated rats, pretreated with vehicle
